pIC50: −log10 of the molar value.
Key:
Plasmodium falciparum [1] = assay: (§1) MMV: P. falciparum NF54 functionally mature Stage V gametocytes were incubated for 24 hr in the presence of the test compounds. Gamete formation was then triggered by addition of 2uM xantheurenic acid and temperature decrease to ~20C. Female gamete formation was recorded 24 hr later by automated microscopy detection of surface labelling of female gametes with a Cy3-conjugated antibody reactive to Pfs25. All compounds were tested in 4 independent experiments and data presented here is the mean.; assay type: functional; design: concentration or dose not given beside the values; conditions: NF54, 24 h
Plasmodium falciparum [2] = assay: (§2) MMV: P. falciparum NF54 functionally mature Stage V gametocytes were incubated for 24 hr in the presence of the test compounds. Gamete formation was then triggered by addition of 2uM xantheurenic acid and temperature decrease to ~20C. Male gamete exflagellation was recorded and analysed by automated microscopy after 20 min. All compounds were tested in 4 independent experiments and data presented here is the mean. IC50s determined for selected compounds.; assay type: functional, organism-based
Plasmodium falciparum [3] = assay: as §2, with “mean.” for “mean. IC50s determined for selected compounds.”; assay type: functional; design: concentration or dose not given beside the values
Plasmodium berghei [4] = assay: (§3) MMV: P. berghei-infected blood was withdrawn from mice by cardiac pucture before being immediately added to ookinete culture medium containing test compounds. 26 hr later, GFP-positive ookinetes were identified and counted by automated microscopy. All compounds were tested in 4 independent experiments and data presented here is the mean.; assay type: functional; design: concentration or dose not given beside the values
Plasmodium falciparum [5] = assay: as §1, with “mean. IC50s determined for selected compounds.” for “mean.”; assay type: functional, organism-based; conditions: NF54, 24 h
Plasmodium berghei [6] = assay: as §3, with “mean. IC50s determined for selected compounds.” for “mean.”; assay type: functional, organism-based

Row | Compound | inhibition (Plasmodium falciparum [1]) | pIC50 (Plasmodium falciparum [2]) | inhibition (Plasmodium falciparum [3]) | inhibition (Plasmodium berghei [4]) | pIC50 (Plasmodium falciparum [5]) | pIC50 (Plasmodium berghei [6])
1 | COc1cccc(NC(=O)[C@H](C(C)C)n2c(=O)[nH]c3ccccc3c2=O)c1 | 36.6% | 6.62 | 70.9% | 58.53% | 6.42 | 6.33
2 | CCOC(=O)c1cn(CC)c2cc(N(C)CCc3ccc(OC)c(OC)c3)c(F)cc2c1=O | -15% | 7.35 | 71.2% | 20.52% | < 4.30 | 
3 | COc1ccc(-c2cc3c(nn2)-c2ccccc2C3=O)cc1 | -5.89% | 5.43 | 71.3% | 2.461% | < 4.30 | 5.24
4 | COc1ccc2c(c1)C1(Nc3ccccc3-c3nc4ccccc4n31)C(=O)N2 (stereo not given) | 24% | 5.54 | 48.2% | 54.64% | 5.19 | 
5 | CCOC(=O)c1ccc2nc(-c3ccccc3)cc(O)c2c1 | 2.21% | 6.63 | 63.6% | 27.95% | < 4.30 | 6.68
6 | CCn1c(CN2CCN(Cc3ccccc3)CC2)nc2cc(NC(=O)c3cccs3)ccc21 | -15.4% | 6.54 | 67.4% | 78.13% | < 4.30 | 6.31
7 | CC1CC2=C(CC1CNCCCN(C)C)C(C)(C)CCC2 (stereo not given) | 56.1% | 6.86 | 62.3% | -10.78% | 6.72 | 5.19
8 | O=C1c2ccccc2C2=Nc3ccccc3SC(c3cccc(F)c3)C12 (stereo not given) | 11% | 5.67 | 70.7% | 71.31% | < 4.30 | 5.97
9 | FC(F)(F)c1cccc(Nc2nc(-c3ccccc3)nc3ncccc23)c1 | 8.9% |  | 10.8% | -9.471% |  | 
10 | COc1ccc(C2Sc3ccccc3N=C3C2=C(O)c2ccccc23)cc1 (stereo not given) | 0.279% |  | 32.2% | 68.07% |  | 
11 | Cc1cccc(-n2ncc3c(O)nc(-n4nc(C)cc4NC(=O)c4cc5ccccc5o4)nc32)c1 | -18.6% |  | 34.4% | -5.778% |  | 
12 | COc1ccc(CN2CCCC(C(=O)c3ccc(C(F)(F)F)cc3)C2)c(O)c1 (stereo not given) | 6.89% |  | 36.1% | -17.45% |  | 
13 | CCN1CCCC1CNc1[nH]cnc2c3cc(Cl)ccc3nc1-2 (stereo not given) | 3.48% |  | 18.2% | -0.006896% |  | 
14 | COc1ccc(Nc2nc(N/N=C/c3ccc(O)cc3)nc(Nc3ccc([N+](=O)[O-])cc3)n2)cc1 | -19.8% |  | -4.02% | 30.88% |  | 
15 | CCOc1cc(Cl)c(C(C)NC(=O)c2cccc(OC)c2)cc1OCC (stereo not given) | -14.9% |  | 3.61% | -8.297% |  | 
16 | CCOC(=O)c1c(C)n(-c2ccc(Cl)cc2)c2ccc(OC(=O)C=Cc3ccccc3)cc12 | -9.97% |  | 18.8% | -22.23% |  | 
17 | CC(O)(c1ccc(Cl)cc1)C(CN1CCCCC1)c1ccccc1.Cl (stereo not given) | -1.41% |  | -5.37% | -9.711% |  | 
18 | COc1ccc(C2C(C(=O)Nc3cccc(OC)c3)c3ccccc3C(=O)N2C2CCCCC2)cc1 (stereo not given) | -25.1% |  | 46.2% | -12.06% |  | 
19 | COc1ccc(CNC(=O)c2cc3c(=O)n4ccccc4nc3n(CCc3ccccc3)c2=N)cc1 | 0.565% |  | -25% | -21.18% |  | 

Row | Compound | inhibition (Plasmodium falciparum [1]) | pIC50 (Plasmodium falciparum [2]) | inhibition (Plasmodium falciparum [3]) | inhibition (Plasmodium berghei [4]) | pIC50 (Plasmodium falciparum [5]) | pIC50 (Plasmodium berghei [6])
20 | Nc1ccc(-c2nc3cc(Oc4ccc(Oc5ccc6[nH]c(-c7ccc(N)cc7)nc6c5)cc4)ccc3[nH]2)cc1 | -54.1% |  | 3.94% | 13.14% |  | 
21 | O=C(Nc1cccc(-c2nc3ccccc3[nH]2)c1)c1cccc(NC(=O)c2ccco2)c1 | -35.1% |  | 31.6% | -15.24% |  | 
22 | CN1c2ccccc2N(C)C1c1ccc2c(c1)OCO2 | -33.5% |  | 8.56% | 3.083% |  | 
23 | COc1ccc(Nc2cc(C)nc(NCc3ccccc3)n2)cc1 | -30.5% |  | -9.51% | -20.03% |  | 
24 | CCCCCCc1cc2cc(-c3csc(C=Cc4ccccc4)n3)c(=O)oc2cc1O | -35.1% |  | -65.7% | -12.07% |  | 
25 | CCOc1ccc(C2N(C)c3ccccc3N2C)cc1 | 9.89% |  | -6.18% | -11.42% |  | 
26 | COc1ccc(C2c3ccc4ccccc4c3Oc3ncn(CCCn4ccnc4)c(=N)c32)cc1OC (stereo not given) | -9.13% |  | 17.5% | 36.85% |  | 
27 | COc1ccc(-c2cn3c(C(=O)Nc4ccccc4Cl)c(-c4ccccc4)c4c3n2CCCC4)cc1 | -34.6% |  | -67.8% | 15.55% |  | 
28 | CC(C)(C)c1ccc2c(c1)CN(Cc1ccc(Cl)cc1)CO2 | 6.43% |  | -12.2% | 3.358% |  | 
29 | Br.Cc1ccc(C)c(-c2csc(Nc3ccc(C)c(C)c3)n2)c1 | -46.3% |  | 20.6% | -11.38% |  | 
30 | CCCN(CCC)CC(O)COc1ccccc1C(=O)Nc1ccccc1 (stereo not given) | -10.5% |  | 0.885% | -27.28% |  | 
31 | COc1ccc(CCn2c(=N)c(C(=O)NCc3cccnc3)cc3c(=O)n4cccc(C)c4nc32)cc1 | -20.7% |  | -7.17% | 23.24% |  | 
32 | CCCCN(CCCC)S(=O)(=O)c1ccc(NC(=O)c2ccco2)cc1 | -25.1% |  | 30.9% | -10.62% |  | 
33 | COc1cccc(-c2nn(C)c3sc(C(=O)NCCN4CCN(c5ccccc5F)CC4)cc23)c1 | -2.79% |  | 14.1% | 2.067% |  | 
34 | COC(=O)c1ccc(Cl)c2c1C1C=CCC1C(c1cccc3ccccc13)N2 (stereo not given) | 10.4% |  | 42.4% | -8.751% |  | 
35 | Cc1ccc(NC(=O)Nc2cccc(Cl)c2)cc1F | -4.87% |  | 2.14% | -16.5% |  | 
36 | O=C(Nc1ccsc1C(=O)NC1CCCCC1)c1ccc(F)cc1 | -14.2% |  | 0.722% | -7.294% |  | 
37 | Cc1c(C)n(CC(O)CNC2CCCCC2C)c2ccccc12 (stereo not given) | -4.05% |  | 8.26% | -21.36% |  | 
38 | CCOc1ccc(/C=C/c2nc(=O)c3ccccc3o2)cc1 | -30.2% |  | 23.7% | -4.823% |  | 

Row | Compound | inhibition (Plasmodium falciparum [1]) | pIC50 (Plasmodium falciparum [2]) | inhibition (Plasmodium falciparum [3]) | inhibition (Plasmodium berghei [4]) | pIC50 (Plasmodium falciparum [5]) | pIC50 (Plasmodium berghei [6])
39 | CCOc1ccc(CN2CCN(CC(O)COc3ccc(OCC(O)CN4CCN(Cc5ccc(OCC)cc5)CC4)cc3)CC2)cc1 (stereo not given) | -37.4% |  | -9.77% | -13.58% |  | 
40 | CCCn1c(=N)c(C(=O)NC2CCCCC2)cc2c(=O)n3cccc(C)c3nc21 | -11.9% |  | 22.1% | -1.292% |  | 
41 | CC1CCCCN1CCCNC(=O)c1ccc2c(c1)sc1nc(-c3ccc(F)cc3)cn12 (stereo not given) | -12.6% |  | -15.9% | 0.9156% |  | 
42 | CC1(c2ccccc2)Nc2ccccc2-c2nc3ccccc3n21 (stereo not given) | 0.151% |  | 11.7% | -11.28% |  | 
43 | COc1cccc(Nc2nc(NCCO)c3ccccc3n2)c1.Cl | -29.6% |  | -137% | -13.29% |  | 
44 | C=CCc1c(C)nc2ccccc2c1O | -51.4% |  | 52.3% | 19.81% |  | 
45 | CC1CN(C(=O)c2sc3ccccc3c2Cl)CC(C)O1 (stereo not given) | -12.3% |  | 35.6% | -8.352% |  | 
46 | CC(=O)c1sc(NC(=O)Nc2ccc(C)cc2C)nc1C | -20.1% |  | -39.7% | -22.74% |  | 
47 | O=C(NCCCN1CCC(N2CCCCC2)CC1)C1=Cc2cc(Br)ccc2OC1 | 15% |  | 8.14% | -4.183% |  | 
48 | O=C(Nc1ccccc1O)c1ccc(Oc2cccc(C(=O)Nc3ccccc3O)c2)cc1 | -9.72% |  | 15.9% | -7.561% |  | 
49 | CN(C)CCNc1cc(-c2ccccc2)nc2ccccc12 | -24.1% |  | 2.52% | -1.411% |  | 
50 | O=C(Nc1ccc(Cl)cc1)N1CCN(c2ccc3nncn3n2)CC1 | -16.6% |  | 25.9% | 8.279% |  | 
51 | Oc1ccc(-c2nc(-c3ccc4oc5ccc(-c6[nH]c(-c7ccc(O)cc7)nc6-c6ccccc6)cc5c4c3)c(-c3ccccc3)[nH]2)cc1 | -4.38% |  | 3.81% | -6.694% |  | 
52 | CCc1ccc(Nc2cc(C)c3ccc(O)cc3n2)cc1.Cl | -14% |  | 15.2% | -20.95% |  | 
53 | Cc1sc(NC(=O)c2ccccc2)c(C(c2cccs2)N2CCN(c3ccccc3)CC2)c1C (stereo not given) | -14.4% |  | 8.21% | -17.69% |  | 
54 | COc1ccc(C2N(C)c3ccccc3N2C)cc1 | 24.3% |  | 10.4% | -4.492% |  | 
55 | N#Cc1nc(Cc2cccc3ccccc23)oc1N1CCN(C(c2ccccc2)c2ccccc2)CC1 | -38.4% |  | 10.2% | -7.443% |  | 
56 | CCOc1ccc(Nc2ccnc3cc(Cl)ccc23)cc1 | -52.9% |  | -4.26% | -13.78% |  | 
